Assay results taken from ChEMBL document CHEMBL5096183, “Contemporary advances of cyclic molecules proposed for inflammation” (Eur J Med Chem, 2021).

Legend:
RAW264.7 = test: Anti-inflammatory activity against LPS induced mouse RAW264.7 cells assessed as suppression of TNFalpha cytokine level at 20 uM incubated for 24 hrs by ELISA assay relative to control; format: functional
Mus musculus [1] = test: Analgesic activity in albino […] mouse assessed as increase in reaction on paw licking at 100 mg/kg, po pretreated for 1 hrs followed by hot plate treatment measured after 90 mins by analgesiometer based analysis relative to control; format: functional; conditions: time 2.5 hrs
Rattus norvegicus [2] = test: Anti-inflammatory activity against carrageenan-induced paw edema in Wistar rat at 20 mg/kg, po assessed as paw edema volume measured after 4 hrs by plethysmometric analysis relative to control; format: functional
Rattus norvegicus [3] = test: Anti-inflammatory activity against carrageenan-induced hind paw edema in rat at 20 mg/kg, PO measured after 5 hrs relative to control; format: functional
Rattus norvegicus [4] = test: Anti-inflammatory activity against carrageenan-induced paw edema in Sprague-Dawley rat at 30 mg/kg, IP pretreated for 30 mins followed by carrageenan addition measured after 4 hrs relative to control; format: functional; conditions: time 4.5 hrs
[5] = Ulcerogenic activity in 12 hrs fasted Albino rat assessed as ulcerogenic index at […] per day, po for 3 days; format: toxicity, organism-based; conditions: in vivo, 72 h, time 3 day
Rattus norvegicus [6] = test: Anti-inflammatory activity against carrageenan-induced paw oedema in 12 hrs fasted Albino rat assessed as inhibition of oedema formation administered intraperitoneally measured after 3 hrs relative to control; format: functional; conditions: route ip
Rattus norvegicus [7] = test: Anti-inflammatory activity against Cotton pellets induced granuloma in Albino rat at 20 mg/kg, po administered for 7 days measured on day 8 by measuring pellet weight relative to control; format: functional; conditions: time 8 day
Rattus norvegicus [8] = test: Acute anti-inflammatory activity against carrageenan induced paw edema in Albino rat at 20 mg/kg, po pretreated for 30 mins followed by carrageenan addition measured every hour for 3 hrs by plethysmography method relative to control; format: functional; conditions: time 3.5 hrs
Rattus norvegicus [9] = test: Antiulcer activity against ulceration induced albino Wistar rat assessed as ulcerogenic index pretreated daily at 25 mg/kg for 4 days followed by 24 hrs fasting prior to pylorus ligation measured after 4 hrs; format: functional; conditions: time 124 hrs
Mus musculus [10] = test: Analgesic activity in hot plate induced thermal pain Swiss albino mouse model assessed as change in latency at 10 mg/kg, po measured at 1 to 2 hrs relative to control; format: functional; conditions: time 1-2 hrs
Homo sapiens = species: Homo sapiens; test: Inhibition of proteinase (unknown origin) at 100 ug/ml using casein as substrate preincubated for 5 mins followed by addition of substrate for 20 mins relative to control; conditions: dose 100.0 µg/ml
Erythrocyte = test: Anti-inflammatory against heat induced human red blood cells assessed as inhibition of heat induced hemolysis by measuring membrane stabilization for at 100 ug/ml incubated for 30 mins relative to control; format: functional; conditions: 0.5 h
Rattus norvegicus [11] = test: Anti-inflammatory activity against carrageenan-induced paw edema in rat relative to control; format: functional
Rattus norvegicus [12] = test: Anti-inflammatory activity against carrageenan induced paw edema in rat assessed as inhibition of paw edema at 12.5 mg/kg,PO pretreated for 1 hrs followed by carrageenan addition for 4 hrs by plethysmographic analysis relative to control; format: functional; conditions: time 5 hrs
Rattus norvegicus [13] = test: Anti-inflammatory activity against formalin-induced foot paw edema in Wistar rat assessed as oedema inhibition at 10 mg/kg,po measured after 3 hrs by plethysmometric analysis relative to control; format: functional
Rattus norvegicus [14] = test: Anti-inflammatory activity against formalin-induced foot paw edema in Wistar rat assessed as oedema inhibition at 10 mg/kg,po measured after 1 hrs by plethysmometric analysis relative to control; format: functional
Rattus norvegicus [15] = test: Anti-inflammatory activity against formalin-induced foot paw edema in Wistar rat assessed as oedema inhibition at 10 mg/kg,po measured after 6 hrs by plethysmometric analysis relative to control; format: functional
Mus musculus [16] = test: Anti-inflammatory activity against Carrageenan-induced paw edema in Swiss albino mouse assessed as change in paw volume at 10 mg/kg, PO measured after 6 hrs by plethysmometric analysis relative to control; format: functional
Rattus norvegicus [17] = test: Anti-inflammatory activity against carrageenan-induced paw edema in po dosed Wistar rat pretreated for 1 hrs followed by carrageenan addition measured after 3 hrs; format: functional; conditions: time 4 hrs
Rattus norvegicus [18] = test: Anti-inflammatory activity against carrageenan-induced paw edema in Wistar albino rat model assessed as inhibition of paw edema at 20 mg/kg, PO relative to control; format: functional
Rattus norvegicus [19] = test: Acute ulcerogenic activity in 18 hrs fasted Wistar rat at 60 mg/kg, po treated for 6 hrs relative to control; format: functional
Rattus norvegicus [20] = test: Anti-inflammatory activity against carrageenan-induced paw edema in Wistar albino rat at 10 mg/kg, po pretreated for 1 hr followed by carrageenan addition measured after 6 hrs by plethysmometer relative to control; format: functional; conditions: time 7 hrs

For `COc1ccc2c(c1)c(CC(=O)O)c(C)n2C(=O)c1ccc(Cl)cc1` [INDOMETHACIN], the Activity (RAW264.7) was 68.84%, the Activity (Mus musculus [1]) was 85.84% and the inhibition in vivo at 20 mg/kg (Rattus norvegicus [2]) was 81.9%. It also gave an inhibition in vivo at 20 mg/kg (Rattus norvegicus [3]) of 81%.
For `Cc1ccc(-c2nnc(CCC(=O)N/N=C3\C(=O)Nc4ccccc43)o2)cc1`, the Activity (Mus musculus [1]) was 83.17%.
`CCOC(=O)CSc1nnc(Cc2ccccc2)n1C1CCCCC1` gave an inhibition in vivo at 30 mg/kg (Rattus norvegicus [4]) of 62.5%.
In the case of `O=C(Nc1nc2ccccc2s1)C(Cc1cc2ccccc2[nH]1)N(C(=O)c1ccccc1)S(=O)(=O)c1ccc([N+](=O)[O-])cc1` (centres undefined), the Activity_index [5] is reported as 0.82 and the “inhibition (INH)” value (Rattus norvegicus [6]) is reported as 80%.
For `COc1ccccc1OC(=O)c1cc(OC)c(OC)c(OC)c1`, the inhibition in vivo at 20 mg/kg (Rattus norvegicus [2]) was 77.1%.
With `O=C(CCN1CCN(c2cccc(Cl)c2Cl)CC1)Nc1ccc2oc(Cc3ccc(Cl)cc3)nc2c1` the Activity (Rattus norvegicus [7]) was 39.3% and the Activity (Rattus norvegicus [8]) was 77.6%.
`CCOC(=O)c1cc(N)n(C(=O)c2csc(-c3ccccc3)n2)n1` gave an Activity (Rattus norvegicus [9]) of 0.44.
Work on `CN1C(C(=O)Nc2ccccn2)=C(O)c2ccccc2S1(=O)=O` [PIROXICAM] yielded an inhibition in vivo at 10 mg/kg (Mus musculus [10]) of 75%.
With `O=Cc1cc2cccc(-c3nc4ccccc4o3)c2nc1Cl` the inhibition (Homo sapiens) was 80.2% and the inhibition at 100 µg/mL (Erythrocyte) was 74.3%.
Molecule `O=C(O)Cc1ccccc1Nc1c(Cl)cccc1Cl` [DICLOFENAC] has an Activity (Rattus norvegicus [11]) of 85.6%, an inhibition in vivo at 12.5 mg/kg (Rattus norvegicus [12]) of 94% and an inhibition in vivo at 10 mg/kg (Rattus norvegicus [13]) of 40.7%. The inhibition in vivo at 10 mg/kg (Rattus norvegicus [14]) was 41.7% and the inhibition in vivo at 10 mg/kg (Rattus norvegicus [15]) was 41.7%.
`COc1ccc(C2CC(c3ccc(F)cc3O)=NN2)cc1` (centres undefined) showed an Activity (Mus musculus [16]) of 54%.
For `O=C(O)CC(O)(c1ccccc1)c1ccccc1`, the ED50 (Rattus norvegicus [17]) was 15 µmol/kg.
Work on `O=C1/C(=C\c2ccc(F)cc2)C=C(c2ccc(F)cc2)N1Cc1ccc(F)cc1` yielded an Activity (RAW264.7) of 65.03% and an inhibition in vivo at 20 mg/kg (Rattus norvegicus [3]) of 76.2%.
For `C/C(=N/Nc1ccc(C(=O)O)cc1)c1cccc(N2C(=O)c3ccccc3C2=O)c1`, the inhibition in vivo at 10 mg/kg (Rattus norvegicus [13]) was 22.2%, the inhibition in vivo at 10 mg/kg (Rattus norvegicus [14]) was 29.2% and the inhibition in vivo at 10 mg/kg (Rattus norvegicus [15]) was 29.2%.
Molecule `Clc1cc(Cl)c2cccc(-c3nc4ccccc4o3)c2n1` has an inhibition (Homo sapiens) of 85.3% and an inhibition at 100 µg/mL (Erythrocyte) of 80.2%.
For `Cc1ccc(S(=O)(=O)N2CC(O)CC2C(=O)Nc2nc3ccccc3s2)cc1` (centres undefined), the Activity_index [5] was 0.89 and the “inhibition (INH)” value (Rattus norvegicus [6]) was 78%.
For `COc1ccc(/C=C/C(=O)c2ccc(F)cc2O)cc1`, the Activity (Mus musculus [16]) was 54%.
`COc1cc(Cc2nc3cc(NC(=O)c4ccc(Cl)cc4)ccc3o2)cc(OC)c1OC` showed an inhibition in vivo at 20 mg/kg (Rattus norvegicus [18]) of 79.5%.
`O=C(CCN1CCN(c2ccc([N+](=O)[O-])cc2)CC1)Nc1ccc2oc(Cc3ccc(Cl)cc3)nc2c1` showed an Activity (Rattus norvegicus [7]) of 44% and an Activity (Rattus norvegicus [8]) of 81.7%.
Molecule `O=C([O-])Cc1ccccc1Nc1c(Cl)cccc1Cl.[Na+]` [DICLOFENAC SODIUM] has an Activity (Rattus norvegicus [19]) of 64.7%, an Activity (Rattus norvegicus [9]) of 4.67 and an Activity (Rattus norvegicus [7]) of 60.2%.
In the case of `O=C(CCc1nnc(-c2ccc(O)cc2)o1)N/N=C1\C(=O)Nc2ccccc21`, the Activity (Mus musculus [1]) is reported as 84.11%.
For `Cc1ccc(N(O)/N=N/c2ccc(S(=O)(=O)Nc3nc(C)cc(C)n3)cc2)cc1`, the inhibition in vivo at 12.5 mg/kg (Rattus norvegicus [12]) was 97.1%.
Molecule `C(=N\c1ccccc1-c1nc2ccccc2o1)/c1cccs1` has an inhibition (Homo sapiens) of 75.2% and an inhibition at 100 µg/mL (Erythrocyte) of 70.2%.
`Nc1cc(-c2ccccc2)nn1C(=O)c1csc(-c2ccccc2)n1` gave an Activity (Rattus norvegicus [9]) of 0.44.
`O=C1/C(=C\c2ccc(F)cc2)C=C(c2ccc(F)cc2)N1Cc1ccccc1Cl` showed an Activity (RAW264.7) of 60.9% and an inhibition in vivo at 20 mg/kg (Rattus norvegicus [3]) of 71.5%.
`CC(C)Cc1ccc(C(C)C(=O)c2ccc(OCc3cn(Cc4ccc([N+](=O)[O-])cc4)nn3)cc2O)cc1` (centres undefined) gave an inhibition in vivo at 10 mg/kg (Rattus norvegicus [20]) of 94.2%.
Work on `S=c1oc(-c2csc(-c3ccccc3)n2)nn1CN1CCCCC1` yielded an Activity (Rattus norvegicus [9]) of 0.44.
`CN(C)CCC(=O)Nc1ccc2oc(Cc3ccc(Cl)cc3)nc2c1` gave an Activity (Rattus norvegicus [7]) of 48.4% and an Activity (Rattus norvegicus [8]) of 72%.
In the case of `CC(C)Cc1ccc(C(C)C(=O)O)cc1` (centres undefined) [IBUPROFEN], the inhibition in vivo at 10 mg/kg (Rattus norvegicus [20]) is reported as 94.7%, the Activity (Rattus norvegicus [19]) is reported as 69.5% and the ED50 (Rattus norvegicus [17]) is reported as 15 µmol/kg. It also gave an inhibition in vivo at 20 mg/kg (Rattus norvegicus [18]) of 65.9%.
Work on `CC(C(=O)O)C(O)(c1ccccc1)c1ccccc1` (centres undefined) yielded an ED50 (Rattus norvegicus [17]) of 15 µmol/kg.
